From patent US20160022875A1, “BONE SUBSTITUTES GRAFTED BY MIMETIC PEPTIDES OF HUMAN BMP 2 PROTEIN” (TEKNIMED, priority 2013, published 2016)

Tested on: Runx2 gene
Assay: Runx2 expression by RT-PCR as a function of density of peptide P1 grafted on a PET model support
Type: cell-based
Settings: P1 grafted on PET at 0.4, 1.2 and 4.3 pmol/mm^2
Method: The peptide P1 was covalently grafted onto a model support, at three different densities. The support is made of polyethylene terephthalate (PET). The densities are 0.4 pmol/mm^2, 1.2 pmol/mm^2 and 4.3 pmol/mm^2. The expression level of the Runx2 factor by RT-PCR as a function of the density of the peptide P1 grafted at the surface of a model support was measured for these three densities (FIG. 13). The best expression level of the Runx2 gene is obtained for 1.2 pmol/mm^2 of peptide density, which corresponds to a maximum cell differentiation activity for the model support.
The activity obtained is also stable over time (after 1 week of culture): at 96 h of culture, a continuous increase in the expression of the Runx2 factor (approximately 42%) is observed.

Sequence: CKIPKASSVPTELSAISMLYL [P1]
- peptide density giving the best expression level of the Runx2 gene: 1.2 pmol/mm^2
